The values that follow come from patent US20050106152A1, “Preventives/remedies for cancer” (priority 2001, published 2005).

One series relates to SUV39H1. The experiment in a line: quantitative PCR of SUV39H1 expression (RNA) after antisense oligonucleotide transfection. The class given is cell-based, human. As to conditions: MDA-MB-231 cells, 7 hours after transfection, compared to control (reverse) oligonucleotide (100%). The source says:
First, the antisense (SEQ ID NO: 4) to the full-length sequence shown by SEQ ID NO: 3 was designed. Thereafter, phosphorothioated oligonucleotide was synthesized, purified on HPLC and used for the transfection test (Amersham Pharmacia Biotech). For control oligonucleotide, a reverse sequence (SEQ ID NO: 5) of the base sequence represented by SEQ ID NO: 4 was likewise phosphorothioated, purified on HPLC and used for the test (Amersham Pharmacia Biotech).
Breast cancer cell line MDA-MB-231 (In Vitro, 14 (11), 911-915, 1978, purchased from ATCC) was used as cells to be tested and on the day before transfecting the oligonucleotide, the cells were plated in 18×10^3 on a 24-well plate (manufactured by Falcon). To transfect the oligonucleotide, OligofectAMINE (manufactured by Invitrogen) was used to follow its protocol. In accordance with the protocol of RNeasy mini kit (manufactured by Qiagen), RNA was extracted 7 hours after the transfection and cDNA was prepared using TaqMan Reverse Transcription Reagents (manufactured by Applied Biosystems). Using 2 primers (SEQ ID NO: 6 and SEQ ID NO: 7) and probe (SEQ ID NO: 8; Amersham Pharmacia Biotech), quantitative PCR was carried out by ABI PRISM TM 7700 Sequence Detector (manufactured by Applied Biosystems). […]

Series [1] relates to Breast cancer cell line MDA-MB-231. The experiment in a line: apoptosis by cell death detection ELISA after antisense oligonucleotide transfection. The class given is cell-based, human. As to conditions: MDA-MB-231 cells, 3 days after transfection, compared to control (100%). (ELISA stands for enzyme-linked immunosorbent assay.)

Turning to “antisense: phosphorothioated antisense oligonucleotide (SEQ ID NO: 4) to the full-length SUV39H1 sequence shown by SEQ ID NO: 3 (antisense ATGCGTCCCAGATGGCTGCG; all phosphorothioate, sugars by position and methylation of C not given here)”, the “expression (RNA) of SUV39H1” value with SUV39H1 turned out to be 70%. Also, the apoptosis in series [1] was 213%.
